The target of test [1] is T1, Retinoic acid receptor alpha (Homo sapiens) (UniProt P10276).
T1 sequence (whole entry): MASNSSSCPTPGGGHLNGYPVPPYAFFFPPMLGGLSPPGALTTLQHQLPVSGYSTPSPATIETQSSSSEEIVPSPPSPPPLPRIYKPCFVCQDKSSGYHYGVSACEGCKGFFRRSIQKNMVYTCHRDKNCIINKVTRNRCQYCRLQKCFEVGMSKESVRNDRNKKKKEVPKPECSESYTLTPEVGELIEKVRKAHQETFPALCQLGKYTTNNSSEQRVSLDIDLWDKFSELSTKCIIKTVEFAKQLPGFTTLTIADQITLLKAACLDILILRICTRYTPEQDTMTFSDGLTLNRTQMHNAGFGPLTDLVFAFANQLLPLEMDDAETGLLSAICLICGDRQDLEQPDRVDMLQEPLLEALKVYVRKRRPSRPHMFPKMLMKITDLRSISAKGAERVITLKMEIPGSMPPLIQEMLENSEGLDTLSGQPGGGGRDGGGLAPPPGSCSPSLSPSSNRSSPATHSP
As to the kind of experiment: Agonist activity at full length RARalpha LBD (unknown origin) transfected in HEK293T cells co-transfected with pG5luc reporter and Renilla-luc assessed as transactivation at 0.5 to 1 uM incubated for 12 hrs by luciferase reporter gene assay. The test is classed as cell-based. The note with it: filed as agonist, dose 0.5-1 µM. Background: In a reporter assay the amount or activity of a reporter protein is the signal.

Test [2] deals with HEK293T. The test is described as follows: Agonist activity at full length RARalpha LBD R276E mutant (unknown origin) transfected in HEK293T cells co-transfected with pG5luc reporter and Renilla-luc at 1 uM incubated for 12 hrs by luciferase reporter gene assay. The format is cell-based. The note with it: Homo sapiens, filed as agonist.
Test [3] deals with T2, Retinoic acid receptor gamma (Homo sapiens, UniProt P13631).
T2 sequence (P13631 whole entry): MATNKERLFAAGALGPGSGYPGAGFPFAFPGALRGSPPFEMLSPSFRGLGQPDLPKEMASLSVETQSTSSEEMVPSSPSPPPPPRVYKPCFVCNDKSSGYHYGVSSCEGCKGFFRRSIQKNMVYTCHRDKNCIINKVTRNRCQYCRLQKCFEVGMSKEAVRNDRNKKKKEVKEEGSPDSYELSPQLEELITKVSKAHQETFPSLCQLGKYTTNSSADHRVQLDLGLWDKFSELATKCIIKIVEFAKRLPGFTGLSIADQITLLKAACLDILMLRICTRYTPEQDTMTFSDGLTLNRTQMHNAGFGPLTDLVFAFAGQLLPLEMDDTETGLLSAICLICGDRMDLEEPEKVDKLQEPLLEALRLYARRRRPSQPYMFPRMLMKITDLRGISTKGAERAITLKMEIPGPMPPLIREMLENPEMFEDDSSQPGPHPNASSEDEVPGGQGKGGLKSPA
The test is described as follows: Agonist activity at Gal4-fused full length human RARgamma LBD transfected in HEK293T cells co-transfected with pG5luc reporter and Renilla-luc assessed as transactivation incubated for 12 hrs by dual luciferase reporter gene assay. The format is cell-based. The note with it: hek293t.

Test [4] concerns ATRA-resistant NB4-LR2. As to the kind of experiment: Antiproliferative activity against human ATRA-resistant NB4-LR2 cells assessed as effect on cell viability up to 2 uM incubated for 3 days by CCK8 assay. As to conditions: time 3.0 day. The format is functional, cell-based. For orientation: Tetrazolium assays rely on reduction of a dye to a coloured formazan, in cell work by metabolically active cells.

Test [5] relates to NB-4. The test is described as follows: Antiproliferative activity against human NB4 cells assessed as inhibition of cell viability at 0.125 uM incubated for 3 days by CCK8 assay relative to control. The test is classed as functional. The note with it: NB-4, 72 h, time 3 day.
Test [6] has as its target T1, Retinoic acid receptor alpha (Homo sapiens). As to the kind of experiment: Agonist activity at full length RARalpha LBD (unknown origin) transfected in HEK293T cells co-transfected with pG5luc reporter and Renilla-luc at 1 uM incubated for 12 hrs by luciferase reporter gene assay. The note with it: filed as agonist. The test is classed as cell-based.
The target in test [7] is T3, Retinoic acid receptor beta (Homo sapiens) (UniProt P10826).
T3 sequence (whole entry): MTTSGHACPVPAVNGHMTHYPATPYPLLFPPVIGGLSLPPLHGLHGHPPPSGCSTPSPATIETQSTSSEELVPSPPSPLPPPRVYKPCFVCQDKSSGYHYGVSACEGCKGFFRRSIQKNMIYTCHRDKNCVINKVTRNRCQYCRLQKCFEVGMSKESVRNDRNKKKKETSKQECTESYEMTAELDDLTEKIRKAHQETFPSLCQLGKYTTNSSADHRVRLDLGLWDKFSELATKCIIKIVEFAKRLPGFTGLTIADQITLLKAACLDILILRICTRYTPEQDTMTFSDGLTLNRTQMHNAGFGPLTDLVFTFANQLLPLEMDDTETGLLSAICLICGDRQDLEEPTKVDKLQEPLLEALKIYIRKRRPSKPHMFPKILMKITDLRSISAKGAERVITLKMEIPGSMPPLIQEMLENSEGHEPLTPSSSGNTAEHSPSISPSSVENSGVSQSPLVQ
The test is described as follows: Agonist activity at full length RARbeta LBD (unknown origin) transfected in HEK293T cells co-transfected with pG5luc reporter and Renilla-luc at 1 uM incubated for 12 hrs by luciferase reporter gene assay. The format is cell-based. The note with it: filed as agonist.

For test [8], the target named is T4, Retinoic acid receptor gamma (Homo sapiens) (UniProt P13631).
T4 sequence (whole entry): T2 sequence (P13631 whole entry)
The test is described as follows: Agonist activity at full length RARgamma LBD (unknown origin) transfected in HEK293T cells co-transfected with pG5luc reporter and Renilla-luc at 1 uM incubated for 12 hrs by luciferase reporter gene assay. The test is classed as cell-based. The note with it: filed as agonist.

The subject of test [9] is NB-4. As to the kind of experiment: Cell cycle arrest in human NB4 cells assessed as accumulation of cells at sub-G1 phase at 1 uM incubated for 12 hrs by DAPI staining based flow cytometric analysis (reference value: 2 %). The format is functional. (A flow cytometer gives signals particle by particle.)
The nature of test [10]: Induction of apoptosis in human ATRA-resistant NB4-LR2 cells assessed as early apoptotic cells at 1 uM incubated for 24 hrs by Annexin V-FITC/PI staining based flow cytometric analysis (reference value: 1.41 %). The format is functional.
A short description of test [11]: Cell cycle arrest in human ATRA-resistant NB4-LR2 cells assessed as accumulation of cells at G2/M phase at 1 uM incubated for 12 hrs by DAPI staining based flow cytometric analysis (reference value: 28 %). The test is classed as functional.
Test [12] deals with NB-4. As to the kind of experiment: Cell cycle arrest in human NB4 cells assessed as accumulation of cells at S phase at 1 uM incubated for 12 hrs by DAPI staining based flow cytometric analysis (reference value: 20 %). The test is classed as functional.
A short description of test [13]: Cell cycle arrest in human ATRA-resistant NB4-LR2 cells assessed as accumulation of cells at sub-G1 phase at 1 uM incubated for 12 hrs by DAPI staining based flow cytometric analysis (reference value: 18 %). The test is classed as functional.
In test [14] the test system is NB-4. The test is described as follows: Induction of apoptosis in human NB4 cells assessed as late apoptotic cells at 1 uM incubated for 24 hrs by Annexin V-FITC/PI staining based flow cytometric analysis (reference value: 2.23 %). The test is classed as functional.
Test [15] has as its system NB-4. The test is described as follows: Induction of cell differentiation in human NB4 cells assessed as NBT positive cells at 0.5 uM incubated for 6 days by Nitro Blue tetrazolium chloride based microscopic analysis (reference value: 0 %). The test is classed as functional. The note with it: time 6 day.
A short description of test [16]: Cell cycle arrest in human ATRA-resistant NB4-LR2 cells assessed as accumulation of cells at S phase at 1 uM incubated for 12 hrs by DAPI staining based flow cytometric analysis (reference value: 12 %). The format is functional.
A short description of test [17]: Induction of apoptosis in human ATRA-resistant NB4-LR2 cells assessed as late apoptotic cells at 1 uM incubated for 24 hrs by Annexin V-FITC/PI staining based flow cytometric analysis (reference value: 5.62 %). The format is functional.
Test [18] relates to NB-4. As to the kind of experiment: Cell cycle arrest in human NB4 cells assessed as accumulation of cells at G0/G1 phase at 1 uM incubated for 12 hrs by DAPI staining based flow cytometric analysis (reference value: 51 %). The test is classed as functional.
Test [19] has as its system NB-4. The test is described as follows: Cell cycle arrest in human NB4 cells assessed as accumulation of cells at G2/M phase at 1 uM incubated for 12 hrs by DAPI staining based flow cytometric analysis (reference value: 26 %). The test is classed as functional.
Test [20] is described as follows: Cell cycle arrest in human ATRA-resistant NB4-LR2 cells assessed as accumulation of cells at G0/G1 phase at 1 uM incubated for 12 hrs by DAPI staining based flow cytometric analysis (reference value: 42 %). The test is classed as functional.
The subject of test [21] is NB-4. As to the kind of experiment: Induction of apoptosis in human NB4 cells assessed as early apoptotic cells at 1 uM incubated for 24 hrs by Annexin V-FITC/PI staining based flow cytometric analysis (reference value: 1.77 %). The format is functional.

Active and inactive are the calls of the source. The rule behind the calls is not given here.

The inhibition is the relative decrease from the control value, in per cent.

With `Cc1cc2c(cc1C(=O)/C(I)=C\c1ccc(C(=O)O)cc1)C(C)(C)CCC2(C)C`, the result in test [1] was Active.
Consider `CC1(C)CCC(C)(C)c2cc(C(=O)Nc3ccc(C(=O)O)cc3)ccc21`, for which the Activity entry in [2] was “Active; Partial Impairment Observed”. The EC50 entry in test [3] is “Not_determined(Unstable)”. Also, the outcome in test [4] was inactive. For the same molecule, the inhibition at 0.125 µM in test [5] was about 40%.
Consider `Cc1cc2c(cc1C(=O)/C=C/c1ccc(C(=O)O)cc1)C(C)(C)CCC2(C)C`, for which the result in test [6] was Active. Also, the Activity result in [7] and in test [8] was “Active; Poor Subtype Selectivity Observed” each time.
As to `Cc1cc2c(cc1C(=O)/C(I)=C/c1ccc(C(=O)O)cc1)C(C)(C)CCC2(C)C`, the Activity in test [9] stood at 2%; in test [10], 1.1%; in test [11], 30%; in test [12], 11%; in [13], 20%; in test [14] it was 4.24%. Further, the Activity is recorded as 78% in [15]; “Active; Highly Raralpha Selective Agonistic Activity Observed” in [1]; 9% in test [16]; 6.66% in [17]; 63% in [18]; 24% in [19]. For the same molecule, the values for the Activity in test [20] and in [21] were 41% and 0.58%, respectively. Also, the inhibition at 0.125 µM in test [5] is about 40%.

These data come from ChEMBL document CHEMBL6134780, “Halogenated retinoid derivatives as dual RARα and RXRα modulators for treating acute promyelocytic leukemia cells” (Eur J Med Chem, 2024).
